Measurements reported in patent US20210244712A1, “METHODS FOR TREATING PATIENTS WITH CANCER HAVING DEFECTS IN CYCLIN D REGULATION” (NysnoBio Ireland DAC, priority 2018, published 2021).
Entries after “also recorded” stand apart in the source; their conditions may differ.

Legend:
SK-OV-3 = experiment: Cell proliferation assay; assay type: cell-based; details: Homo sapiens, Table 7a, Ovarian (SKOV3)
Procedure: (§1) Measurement of the inhibitive effect of compounds on cancer cell proliferation was performed. The assays were performed under the following conditions: Cells are harvested at a concentration of 4×10^4 cells/ml in media. Volumes of 100 μL/well of these cell suspensions were added to a 96 well plate using a multichannel pipette. Plates were gently agitated to ensure an even dispersion of cells over a given plate. Cells were then incubated at 37° C., 5% CO2 overnight. Following this, 100 μL of compound at varying concentrations was added to wells in triplicate. Control wells are those with 100 μL media containing 0.33% DMSO added to cell suspension (this is the equivalent volume of DMSO found in the highest concentration of drug). Plates were then gently agitated, as above, and incubated at 37° C., 5% CO2 for 72 hrs (control wells have reached 80-90% confluency). Assessment of cell proliferation in the presence of Compounds C and F was determined by the acid phosphatase assay.
(§2) Following the incubation period of 72 hrs, media was removed from the plates. Each well on the plate was washed twice with 100 μL PBS. This was then removed and 100 μL of freshly prepared phosphatase substrate (10 mM p-nitrophenol phosphate in 0.1M sodium acetate, 0.1% triton X-100, pH 5.5) was added to each well. The plates were then incubated in the dark at 37° C. for 2 hours. Color development was monitored during this time. The enzymatic reaction was stopped by the addition of 50 μL of 1N NaOH. The plate was read in a dual beam plate reader at 405 nm with a reference wavelength of 620 nm. The absorbance reading of the latter is subtracted from the former, and the effect of the drug on cell proliferation was then measured as a percentage against the control cells (DMSO), which is taken as 0% inhibition.

Mino = experiment: Cell proliferation assay; assay type: cell-based; details: Homo sapiens; Mantle Cell Mino; overexpression of Cyclin D
Procedure: as §1, §2

HCT-116 xenograft = experiment: Subcutaneous HCT-116 xenograft model, tumor volume; assay type: in vivo, nude mice; details: vs control
Procedure: The efficacy of Compound 42, Compound F, and Compound Q3 were evaluated in the treatment of subcutaneous HCT-116 xenograft model in nude mice.
Cell Culture: HCT-116 tumor cell lines were maintained in vitro as a monolayer culture in DMEM medium supplemented with 10% fetal bovine serum at 37° C. in an atmosphere of 5% CO2 in air. The tumor cells were routinely subcultured twice weekly by trypsin-EDTA treatment (0.05% Trypsin-EDTA) and 1:4 split: The cells in an exponential growth phase were harvested and counted for tumor inoculation.
Tumor Inoculation: Each, mouse was inoculated subcutaneously at the flank region with HCT-1.16 cells (1.0×106) in 0.1 ml of 1×PBS mixed with Matrigel (1:1) for tumor development. The day Xenotransplantation was performed is denoted as day 0.
Thirty (30) animals with approx 100-150 mm^3 tumors were selected for HCT-116 follow up experiment and randomly placed Into Groups 1, 2, […], 4, 5, and 6 as shown in Table 8.
Group Assignment: Before grouping and treatment, all animals were weighed and fee tumor volumes were confirmed (100-150 mm^3) using electronic caliper. Since the tumor volume can affect fee effectiveness of any given treatment mice into groups using randomized block design as following: First the experimental animals were divided into homogeneous blocks based on their tumor volume. Secondly, within each block, randomization of experimental animals to different groups By using randomized block design to assign experimental animals, we ensure that each animal has the same probability of being assigned to any given treatment groups and therefore systematic error is minimized.
Treatments were initiated when turner volume reached 100-150 mm^3. Treatments started on Day 5. Test compounds were administered intraperitoneally (II′) in 10 mg/mL solution comprising 10% N,N-dimethyl acetamide, 15% macrogol 15 hydroxy stearate, polyethylene glycol-15-hydroxystearate, and 75% aqueous hydroxypropyl-beta-cyclodextrin.
Observation and data collection: After tumor cells inoculation, the animals were checked daily for morbidity and mortality. At the time of routine monitoring, the animals were checked for any adverse effects of tumor growth and treatments on normal behavior such as mobility, visual estimation of food and water consumption, body weight gain/loss, eye/hair matting and any other abnormal effects, Death and observed clinical signs were recorded, per […] IACUC. Tumor volumes were measured every 3-4 days in two dimensions using an electronic caliper, sad the volume data are expressed in, mm3 using the formula: V=0.5 a×b^2 where a and b are fee long and short diameters of the tumor, respectively. Dosing and tumor volume measurement procedures were conducted in a Laminar Flow Cabinet according to Altogen Labs IACUC regulations.
Statistics: Summary statistics, the mean and the standard error of the mean (SEM), are provided for the tumor volume of each group at each time point. Statistical analysis of difference in tumor volume among the groups and the analysis of drug interaction were conducted on the data obtained after the final dose.

ES-2 = experiment: Cell proliferation assay; assay type: cell-based; details: Homo sapiens
HCC1954 = experiment: Cell proliferation assay; assay type: cell-based; details: Homo sapiens, 72 hrs, read-out: Cell Viability: IC50
Procedure: as §1, §2

SW480 = experiment: Cell proliferation assay; assay type: cell-based; details: Homo sapiens, 72 hrs, read-out: Cell Viability: IC50
Procedure: as §1, §2

BT-474 = experiment: Cell proliferation assay; assay type: cell-based; details: Homo sapiens, 72 hrs, read-out: Cell Viability: IC50
Procedure: as §1, §2

HT-29 = experiment: Cell proliferation assay; assay type: cell-based; details: Homo sapiens, 72 hrs, read-out: Cell Viability: IC50
Procedure: as §1, §2

NCl-H1703 = experiment: Cell proliferation assay; assay type: cell-based; details: 72 hrs, read-out: Cell Viability: IC50
Procedure: as §1, §2

RKO = experiment: Cell proliferation assay; assay type: cell-based; details: Homo sapiens, 72 hrs, read-out: Cell Viability: IC50
Procedure: as §1, §2

MDA-MB-468 = experiment: Cell proliferation assay; assay type: cell-based; details: Homo sapiens, 72 hrs, read-out: Cell Viability: IC50
Procedure: as §1, §2

Calu-6 = experiment: Cell proliferation assay; assay type: cell-based; details: Homo sapiens, 72 hrs, read-out: Cell Viability: IC50
Procedure: as §1, §2

Caco-2 = experiment: Cell proliferation assay; assay type: cell-based; details: Homo sapiens, 72 hrs, read-out: Cell Viability: IC50
Procedure: as §1, §2

HCC38 = experiment: Cell proliferation assay; assay type: cell-based; details: Homo sapiens, 72 hrs, read-out: Cell Viability: IC50
Procedure: as §1, §2

MDA-MB-436 = experiment: Cell proliferation assay; assay type: cell-based; details: Homo sapiens, 72 hrs, read-out: Cell Viability: IC50
Procedure: as §1, §2

MDA-MB-157 = experiment: Cell proliferation assay; assay type: cell-based; details: Homo sapiens, 72 hrs, read-out: Cell Viability: IC50
Procedure: as §1, §2

HCT-8 = experiment: Cell proliferation assay; assay type: cell-based; details: Homo sapiens, 72 hrs, read-out: Cell Viability: IC50
Procedure: as §1, §2

NCl-H226 = experiment: Cell proliferation assay; assay type: cell-based; details: 72 hrs, read-out: Cell Viability: IC50
Procedure: as §1, §2

NC-H196 = experiment: Cell proliferation assay; assay type: cell-based; details: 72 hrs, read-out: Cell Viability: IC50
Procedure: as §1, §2

[1] = Groups 2-6 of Table 8 (Compound 42 1 and 5, Q3 5 and 15, F 25 mg/kg), IP daily for 20 days, 28 days

## Cc1ccccc1C(=O)Nc1nc(NC(=O)c2ccccc2C)n(-c2ccc(OC(F)(F)F)cc2)n1 [Compound 42, N,N′-(1-(4-(trifluoromethoxy)phenyl)-1H-1,2,4-triazole-3,5-diyl)bis(2-methylbenzamide)]
SK-OV-3
  EC50: 0.376 µM
Mino
  IC50: 0.345 µM
HCT-116 xenograft; 1 mg/kg, IP, over 28 days
  tumor growth (tumor volume): reduce tumor growth
HCT-116 xenograft; 5 mg/kg, IP, over 28 days
  tumor growth (tumor volume): reduce tumor growth
HCT-116 xenograft; [1]
  tumor growth (tumor volume): reduce the tumor growth
ES-2; Ovarian ES-2, overexpression of Cyclin D, loss of p16 (mutant p53)
  IC50: 0.057 µM
ES-2; Table 7a, Ovarian (ES-2)
  EC50: 0.042 µM

## Cc1ccccc1C(=O)Nc1nc(NC(=O)c2ccccc2C)n(-c2ccccc2)n1 [Compound F, 2-methyl-N-[5-[(2-methylbenzoyl)amino]-1-phenyl-1,2,4-triazol-3-yl]benzamide]
HCC1954
  IC50: 3.69 µM
SW480
  IC50: 3.49 µM
BT-474
  IC50: 3.03 µM
HT-29
  IC50: 2.96 µM
NCl-H1703
  IC50: 1.85 µM
RKO
  IC50: 4.12 µM
MDA-MB-468
  IC50: 3.18 µM
Calu-6
  IC50: 1.89 µM
Caco-2
  IC50: > 10 µM
HCC38
  IC50: 5.77 µM
MDA-MB-436
  IC50: 6.55 µM
MDA-MB-157
  IC50: 5.82 µM
HCT-8
  IC50: 4.74 µM
NCl-H226
  IC50: 7.33 µM
NC-H196
  IC50: 2.83 µM
HCT-116 xenograft; 10 mg/kg, over 28 days
  tumor growth (tumor volume): substantially reduce tumor growth
HCT-116 xenograft; 25 mg/kg, IP, over 28 days
  tumor growth (tumor volume): most substantially reduced; also recorded: substantially reduce tumor growth
HCT-116 xenograft; [1]
  tumor growth (tumor volume): reduce the tumor growth
